Data taken from patent US6218384A, “3-Oxo-pyrido(1,2-a)benzimidazole-4-carboxyl and 4-oxo-azepino(1,2-a)benzimidazole-5-carboxyl derivatives useful in treating central nervous system disorders” (Ortho-McNeil Pharmaceutical, Inc., priority 1997, dated 2001).
Like-named read-outs stand apart in the source and are kept apart here.

Legend:
[1] = Suppression of anxiety (punished licking, conflict test) in the adult male rat; assay type: in vivo, male rats
Method: The anxiolytic activity of selected compounds of the invention was assessed by determining their ability to release (disinhibit) behavior that had been suppressed by punishment (Vogel, J. R. et al. Psychopharmacology 1971, 21, 1). Male rats were deprived of water for 48 hours and were deprived of food for 24 hours prior to testing. After the first 24 hours of water deprivation, they were placed in the conflict chamber for a training period; wherein, they were allowed 200 unpunished licks from a bottle containing tap water. The experiment was run the next day. At the expected time of peak activity, the animals were placed in the chamber and allowed access to tap water. […] Their first lick initiates a 3-min test session. Subsequently,every 20th lick was punished by a 0.2-s shock delivered via the stainless-steel drinking-tube. Vehicle-treated control animals generally were willing to accept a median number of 3 to 8 shocks per test session. […] The Wilcoxon rank-sum test (Mann-WhitneyU-test) was used to test for an increase (p<0.05, 1-tailed) in the median number of shocks in drug-treated groups, compared to a concurrently run vehicle-treated group. The biological assay is considered to be valid if the effects of a known anxiolytic (positive control) are detected, within the same experiment. A compound was considered active if there is a significant difference in the median number of shocks tolerated between the drug-treated group and the control group. The MED was defined as the minimum dose of the drug-treatment as analyzed using the Wilcoxon rank-sum test (SAS; Statistical Analysis System, version 5.16). If the MED value is greater than 10, an active dose of the compound being tested had not been determined.

[2] = Suppression of metrazol-induced convulsions; assay type: in vivo, male CD1 mice; settings: mice; for Metrazol (ip) ED50: 30 min; for ED50: Mus musculus, 0.5 h
Method: Selected compounds of the invention were tested for their ability to reduce metrazol-induced convulsions in mice (Swinyard, E. A. J. Am. Pharm Assoc. 1949, 38, 201). Male CD1 mice, were fasted at least 16 hours, were divided into equal groups and test compounds or vehicle were administered parenterally. Water was not withheld except during the period of observations. At the time of suspected peak activity, anti-pentylenetetrazol (anti-metrazol) activity was evaluated by the subcutaneous administration of the CD90 dose of metrazol (the dose of metrazol was determined from the dose-response curve producing clonic convulsions in 90% of animals that received the corresponding vehicle for this experiment). Metrazol was dissolved in 0.9% sodium chloride solution, and its dose volume was 10 ml/kg. Animals were housed individually for observation of clonic convulsions, tonic convulsions and death for a period of 30 min. Test compounds that blocked the clonic seizure component of the convulsion in at least 50% of the animals were considered active. The biological assay was considered to be valid if the effects of a known anticonvulsant (positive control) were detected, within the same experiment. Activity was reported as percent reduction of clonic convulsions from the vehicle group. The ED50 values of active compounds were calculated by the method of probits (Finney, D. J. 1971. Probit Analysis. London: Cambridge University Press) and are listed in Tables 1 to 5.

[3] = molecular target: benzodiazepine site of the GABA-A receptor; experiment: Benzodiazepine Receptor Binding Assay (inhibition of 3H-flunitrazepam binding); settings: ca. 3 nM 3H-flunitrazepam
[4] = Table 1, ip, minimum effective dose, >10 = active dose not determined
[5] = Table 1, ip, clonic convulsions after sc CD90 metrazol, >30 = active dose not determined
[6] = Table 1, 25° C., 10-20 min, >10,000 = not active
[7] = Table 1, ip, minimum effective dose, >10 = active dose not determined, read-out: Conflict (ip) MED
[8] = Table 1, ip, clonic convulsions after sc CD90 metrazol, >30 = active dose not determined, read-out: Metrazol (ip) ED50

Compound	IC50 [3, 6]	minimal effective dose [1, 7]	ED50 [2, 8]	also measured
1,2-Dihydro-3-hydroxy-N-phenylpyrido(1,2-a)benzimidazole-4-thiocarboxamide [CP 117]	46 nM			Conflict (ip) MED [1, 4]: 10 mg/kg; Metrazol (ip) ED50 [2, 5]: > 30 mg/kg
1,2-Dihydro-5-ethyl-3-oxo-N-(2-fluorophenyl)-pyrido(1,2-a)benzimidazole-4-carboxamide [CP 123]	620 nM			Conflict (ip) MED [1, 4]: 1 mg/kg; Metrazol (ip) ED50 [2, 5]: 5 mg/kg
O=C1CCN2C(=C1C(=O)NCCc1ccccc1)Nc1ccccc12 [compound 2]	280 nM	> 10 mg/kg	10 to 30 mg/kg	
O=C1CCN2C(=C1C(=O)Nc1cccc(Cl)c1)Nc1ccccc12 [compound 6]	120 nM	> 10 mg/kg	> 30 mg/kg	
COc1ccc(NC(=O)C2=C3Nc4ccccc4N3CCC2=O)cc1OC [compound 8]	32 nM	> 10 mg/kg	> 30 mg/kg	
COc1ccc2c(c1)NC1=C(C(=O)Nc3ccccc3)C(=O)CCN12 [compound 12]	40 nM	> 10 mg/kg	3 mg/kg	
O=C1CCN2C(=C1C(=O)Nc1c(Cl)cccc1Cl)Nc1ccccc12 [compound 14]	320 nM	> 10 mg/kg	30 mg/kg	
O=C1CCN2C(=C1C(=O)Nc1cccc(C(F)(F)F)c1)Nc1ccccc12 [compound 15]	300 nM	> 10 mg/kg	> 10 mg/kg	
O=C1CCN2C(=C1C(=O)Nc1ccccc1)Nc1cc(C(F)(F)F)ccc12 [compound 16]	960 nM			
Nc1ccc(NC(=O)C2=C3Nc4ccccc4N3CCC2=O)cc1 [compound 18]	13000 nM	> 10 mg/kg	3 mg/kg	
O=C1CCN2C(=C1C(=O)Nc1ccccc1F)Nc1ccccc12 [compound 20]	1.7 nM	1 mg/kg	0.1 mg/kg	
COc1cccc(NC(=O)C2=C3Nc4ccccc4N3CCC2=O)c1 [compound 21]	26 nM	5 mg/kg	0.3 mg/kg	
O=C1CCN2C(=C1C(=O)Nc1ccccn1)Nc1ccccc12 [compound 22]	59 nM	10 mg/kg	10 mg/kg	
CSc1ccc(NC(=O)C2=C3Nc4ccccc4N3CCC2=O)cc1 [compound 23]	400 nM	> 10 mg/kg	10 mg/kg	
CN(C)c1ccc(NC(=O)C2=C3Nc4ccccc4N3CCC2=O)cc1 [compound 24]	270 nM	3 mg/kg	3 mg/kg	
O=C1CCN2C(=C1C(=O)Nc1ccccc1Cl)Nc1ccccc12 [compound 25]	12 nM	10 mg/kg	1 mg/kg	
COc1ccccc1NC(=O)C1=C2Nc3ccccc3N2CCC1=O [compound 26]	990 nM	> 10 mg/kg	> 10 mg/kg	
CCOC(=O)c1ccc(NC(=O)C2=C3Nc4ccccc4N3CCC2=O)cc1 [compound 27]	> 10000 nM	< 10 mg/kg	> 30 mg/kg	
O=C1CCN2C(=C1C(=O)Nc1ccc(C(=O)O)cc1)Nc1ccccc12 [compound 28]	> 10000 nM	10 mg/kg	> 30 mg/kg	
NC(=O)C1=C2Nc3ccccc3N2CCC1=O [compound 29]	2400 nM	10 mg/kg	> 3 mg/kg	
O=C1CCN2C(=C1C(=O)Nc1ccc3[nH]ccc3c1)Nc1ccccc12 [compound 30]	530 nM	> 10 mg/kg	> 30 mg/kg	
Cc1ccccc1NC(=O)C1=C2Nc3ccccc3N2CCC1=O [compound 31]	230 nM	10 mg/kg	> 30 mg/kg	
O=C1CCN2C(=C1C(=O)NCc1ccccc1)Nc1ccccc12 [compound 32]	38 nM	> 10 mg/kg	> 30 mg/kg	
O=C1CCN2C(=C1C(=O)Nc1ccc3c(c1)CCN3)Nc1ccccc12 [compound 33]	54 nM	10 mg/kg	> 30 mg/kg	

Compound	IC50 [3, 6]	minimal effective dose [1, 7]	ED50 [2, 8]	also measured
CN(C)c1cccc(NC(=O)C2=C3Nc4ccccc4N3CCC2=O)c1 [compound 34]	37 nM	> 10 mg/kg	4 mg/kg	
O=C1CCN2C(=C1C(=O)Nc1ccncc1)Nc1ccccc12 [compound 35]	160 nM	3 mg/kg	2 mg/kg	
O=C1CCN2C(=C1C(=O)Nc1c(F)cccc1F)Nc1ccccc12 [compound 36]	2.8 nM	0.1 mg/kg	1 mg/kg	
COc1ccc2c(c1)NC1=C(C(=O)NC3CCCCC3)C(=O)CCN12 [compound 37]	800 nM	10 mg/kg	10 mg/kg	
CCCCNC(=O)C1=C2Nc3ccccc3N2CCC1=O [compound 38]	54 nM	> 10 mg/kg	> 10 mg/kg	
O=C1CCN2C(=C1C(=O)Nc1ccncn1)Nc1ccccc12 [compound 39]	480 nM	10 mg/kg	> 10 mg/kg	
CSc1ccccc1NC(=O)C1=C2Nc3ccccc3N2CCC1=O [compound 40]	720 nM	> 10 mg/kg	> 10 mg/kg	
O=C1CCN2C(=C1C(=O)Nc1ccc3ncccc3c1)Nc1ccccc12 [compound 41]	130 nM	> 10 mg/kg	> 30 mg/kg	
O=C1CCN2C(=C1C(=O)NC1CC1)Nc1ccccc12 [compound 43]	16 nM	> 10 mg/kg	> 10 mg/kg	
O=C1CCN2C(=C1C(=O)Nc1ccc(Br)cc1)Nc1ccccc12 [compound 44]	130 nM	> 10 mg/kg	3 mg/kg	
O=C1CCN2C(=C1C(=O)Nc1ccc(F)cc1)Nc1ccccc12 [compound 45]	430 nM	10 mg/kg	> 30 mg/kg	
O=C1CCN2C(=C1C(=O)Nc1ncccn1)Nc1ccccc12 [compound 46]	54 nM	10 mg/kg	3 mg/kg	
Nc1ccccc1NC(=O)C1=C2Nc3ccccc3N2CCC1=O [compound 47]	50 nM	10 mg/kg	3 mg/kg	
O=C1CCN2C(=C1C(=O)Nc1ccc3cn[nH]c3c1)Nc1ccccc12 [compound 48]	350 nM	10 mg/kg	> 30 mg/kg	
CN(C)c1ccc(NC(=O)C2=C3Nc4ccccc4N3CCC2=O)c(F)c1 [compound 86]	120 nM		1 mg/kg	
O=C1CCN2C(=C1C(=O)Nc1c(Cl)cc(Cl)cc1Cl)Nc1ccccc12 [compound 101]		> 10 mg/kg	> 10 mg/kg	
O=C1CCN2C(=C1C(=O)Nc1ccncc1F)Nc1cc(F)ccc12 [compound 110]	12 nM			
O=C1CCN2C(=C1C(=O)Nc1ccc(F)cc1F)Nc1cc(F)ccc12 [compound 111]	3.3 nM			
O=C1CCN2C(=C1C(=O)Nc1c(Cl)cccc1Cl)Nc1cc(F)ccc12 [compound 112]	100 nM			
O=C1CCN2C(=C1C(=O)Nc1cccnc1F)Nc1ccccc12 [compound 116]		> 10 mg/kg	2 mg/kg	
O=C1CCN2C(=C1C(=O)Oc1ccccc1)Nc1ccccc12 [compound 118]				ED50 ([2]; Table 2, ip, clonic convulsions, read-out: Antimetrazol (ip) ED50): 3 mg/kg; IC50 ([3]; Table 2): 200 nM
CC1CN2C(=C(C(=O)Nc3ccccc3F)C1=O)N(C)c1ccccc12 (stereo not shown) [compound 132]				minimal effective dose ([1]; Table 3, minimum effective dose, read-out: Conflict MED): < 10 mg/kg; ED50 ([2]; Table 3, parenteral, clonic convulsions, read-out: Antimetrazol ED50): 1 mg/kg
O=C1CCCN2C(=C1C(=O)Nc1ccncc1)N(Cc1ccccc1)c1ccccc12 [compound 154]				ED50 ([2]; Table 5, parenteral, clonic convulsions, read-out: Antimetrazol ED50): > 10 mg/kg; IC50 ([3]; Table 5): 6700 nM
